Assay: Inhibition of human CES2A using fluorescein diacetate as substrate preincubated for 3 mins followed by substrate addition measured after 30 mins by fluorescence based assay
`CCN(C)C(=O)Oc1ccc(C(=O)N2CCC(c3ccccc3)CC2)cc1OC` gave an IC50 of 1.47 nM. In the case of `CCOc1cc(C(=O)N2CCC(Cc3ccccc3)CC2)ccc1OC(=O)N(C)CC`, the IC50 is reported as 1.13 nM. With `CCN(C)C(=O)Oc1ccc(C(=O)N2CCC(C(=O)c3ccc(F)cc3)CC2)cc1OC` the IC50 was 10.3 nM. For `CCN(C)C(=O)Oc1ccc(CCC(=O)N2CCC(Cc3ccccc3)CC2)cc1OC`, the IC50 was 3.31 nM. `CCN(C)C(=O)Oc1ccc(C(=O)N2CCC(Cc3ccccc3)CC2)cc1OCC1CC1` gave an IC50 of 1.02 nM. Work on `CCN(C)C(=O)Oc1ccc(C(=O)N2CCC(Cc3ccc(F)cc3)CC2)cc1OC` yielded an IC50 of 1.31 nM. `CCN(C)C(=O)Oc1ccc(CCC(=O)N2CCc3ccccc3C2)cc1OC` showed an IC50 of 6.05 nM. `CCN(C)C(=O)Oc1ccc(C(=O)N2CCC(CCCc3ccccc3)CC2)cc1OC` showed an IC50 of 2.94 nM. Compound `CCN(C)C(=O)Oc1ccc(CCC(=O)N2CCN(Cc3ccccc3)CC2)cc1OC` has an IC50 of 57.3 nM. Work on `CNC(=O)COc1ccc(C(C)=O)cc1OC` yielded an IC50 of 462 nM. `CCN(CC)C(=O)COc1ccc(C(C)=O)cc1OC` showed an IC50 of 460 nM. `CCN(C)C(=O)Oc1ccc(CCC(=O)N2CCc3ccccc3C2)cc1` gave an IC50 of 7.39 nM. Compound `CCN(C)C(=O)Oc1ccc(C(=O)N2CCc3ccccc3C2)cc1OC` has an IC50 of 2.06 nM. For `CCN(C)C(=O)Oc1ccc(CCC(=O)N2CCC(c3ccccc3)CC2)cc1OC`, the IC50 was 4.85 nM. Work on `COc1cc(CCC(=O)N2CCC(Cc3ccccc3)CC2)ccc1OC(=O)N(C)C` yielded an IC50 of 4.1 nM. In the case of `CN(C)C(=O)C(CCN1CCC(O)(c2ccc(Cl)cc2)CC1)(c1ccccc1)c1ccccc1` [LOPERAMIDE], the IC50 is reported as 404 nM. In the case of `CCN(C)C(=O)Oc1ccc(C(=O)N2CCN(Cc3ccccc3)CC2)cc1OC`, the IC50 is reported as 5.93 nM. Work on `CCN(CC)C(=O)Oc1ccc(CCC(=O)N2CCC(Cc3ccccc3)CC2)cc1OC` yielded an IC50 of 34 nM. `CCN(C)C(=O)Oc1ccc(/C=C/C(=O)N2CCC(Cc3ccccc3)CC2)cc1` gave an IC50 of 1.46 nM. Work on `COc1cc(CCC(=O)N2CCC(Cc3ccccc3)CC2)ccc1OC(=O)N1CCOCC1` yielded an IC50 of 7.27 nM. With `CCN(C)C(=O)Oc1ccc(/C=C/C(=O)N2CCC(c3ccccc3)CC2)cc1OC` the IC50 was 3.18 nM.

Source: ChEMBL document CHEMBL6103648, “AI-Driven Discovery of Highly Specific and Efficacious hCES2A Inhibitors for Ameliorating Irinotecan-Triggered Gut Toxicity” (J Med Chem, 2025)
